Patent publication US20220087996A1, “Histone acetylase p300 inhibitor and use thereof” (HINOVA PHARMACEUTICALS INC., priority 2018, published 2022)
Read-outs that look alike come from different tables or passages of the source.

Experiments:
histone acetylase p300 = molecular target: T1, histone acetylase p300 (Homo sapiens, UniProt Q09472); test: Inhibitory activity on histone acetylase p300 (radioisotope FlashPlate); type: biochemical; settings: enzyme 0.2 nM, peptide substrate 600 nM, [3H]-Ac-CoA 250 nM; read-out: IC50 against P300
T1 construct: purchased BPS
Excerpt: Using the radioisotope FlashPlate technology, the half inhibitory concentration (IC50) of the compound according to the present invention was detected against histone acetylase p300 (purchased from BPS). […] Under the catalysis of histone acetylase p300, [3H]—Ac group in the isotope-labeled [3H]-Ac-CoA was transferred to the biotinylated histone polypeptide substrate (purchased from GL Biochem Ltd.), and then the biotinylated histone peptide substrate bound to the streptavidin on the FlashPlate board, so that the isotope was close enough to the FlashPlate board. Thus, the radiation energy of isotope could convert the scintillation fluid coated on the FlashPlate board into photons, that was able to be detected. Detailed procedures were as follows:
• 1× reaction buffer: 50 mM Tris-HCl, pH 7.5; 0.01% Tween-20 • Reaction stop solution: 750 μM Ac-CoA solution
Each test compound was dissolved into 10 mM with 100% DMSO, and then each compound was diluted to the desired concentration in Echo 384-well plate. […] 200 nl of 100% DMSO was transferred into the well as the negative control.
p300 was added to 1× reaction buffer to form a 2× enzyme solution (the final concentration of enzyme being 0.2 nM).
The peptide substrate and [3H]-Ac-CoA were added to the 1-fold reaction buffer, to form a 2-fold substrate solution (the final concentration of the substrate being 600 nM and 250 nM, respectively).
10 μl of 2-fold enzyme solution was added to the wells of 384-well reaction plate. […] The plate was centrifuged at 1000 rpm for 1 min and incubated at room temperature for 15 min.
10 μl of 2-fold substrate solution was added to each well of 384-well reaction plate. The plate was centrifuged at 1000 rpm for 1 min, and then reacted at 25° C. for 60 min.
10 μl of reaction stop solution was added to each well of 384-well reaction plate to stop the reaction. 25 μL solution was collected from each well of the test plate and transferred to Flashplate, that was placed at room temperature for 1 h. Then, Flashplate plate was washed three times with 0.1% Tween-20 solution.
4) Reading Data with MicroBeta 2
The data were copied from Microbeta 2. […] The maximum value is the conversion rate of the control DMSO, and the minimum value is the conversion rate of the control without enzyme activity.
The data were imported into Graph Pad Prism5, and the formula “log(inhibitor) vs. response−Variable slope” was used to perform curve fitting, to obtain the half inhibitory concentration (IC50).

CWR22RV1 cells = test: Inhibition of proliferation of CWR22RV1 cells (CCK-8); type: cell-based, human; settings: 6 days culture
Outline: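 CWR22RV1 cells (1500/well) were exposed to 9 three-fold compound concentrations (top final 10 μM, 0.1% DMSO) for 6 days. CCK-8 was added for 2.5 h, and absorbance was read at 450 nm. IC50 was fitted with a dose-response-inhibition equation.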

[1] = read-out: IC50 against CWR22RV1 cells
[2] = Homo sapiens, CWR22Rv1, 144 h, read-out: IC50 against CWR22RV1 cells (text)
[3] = Homo sapiens, CWR22Rv1, 144 h, read-out: IC50 against CWR22RV1 cells

T1 sequence (Q09472 whole entry): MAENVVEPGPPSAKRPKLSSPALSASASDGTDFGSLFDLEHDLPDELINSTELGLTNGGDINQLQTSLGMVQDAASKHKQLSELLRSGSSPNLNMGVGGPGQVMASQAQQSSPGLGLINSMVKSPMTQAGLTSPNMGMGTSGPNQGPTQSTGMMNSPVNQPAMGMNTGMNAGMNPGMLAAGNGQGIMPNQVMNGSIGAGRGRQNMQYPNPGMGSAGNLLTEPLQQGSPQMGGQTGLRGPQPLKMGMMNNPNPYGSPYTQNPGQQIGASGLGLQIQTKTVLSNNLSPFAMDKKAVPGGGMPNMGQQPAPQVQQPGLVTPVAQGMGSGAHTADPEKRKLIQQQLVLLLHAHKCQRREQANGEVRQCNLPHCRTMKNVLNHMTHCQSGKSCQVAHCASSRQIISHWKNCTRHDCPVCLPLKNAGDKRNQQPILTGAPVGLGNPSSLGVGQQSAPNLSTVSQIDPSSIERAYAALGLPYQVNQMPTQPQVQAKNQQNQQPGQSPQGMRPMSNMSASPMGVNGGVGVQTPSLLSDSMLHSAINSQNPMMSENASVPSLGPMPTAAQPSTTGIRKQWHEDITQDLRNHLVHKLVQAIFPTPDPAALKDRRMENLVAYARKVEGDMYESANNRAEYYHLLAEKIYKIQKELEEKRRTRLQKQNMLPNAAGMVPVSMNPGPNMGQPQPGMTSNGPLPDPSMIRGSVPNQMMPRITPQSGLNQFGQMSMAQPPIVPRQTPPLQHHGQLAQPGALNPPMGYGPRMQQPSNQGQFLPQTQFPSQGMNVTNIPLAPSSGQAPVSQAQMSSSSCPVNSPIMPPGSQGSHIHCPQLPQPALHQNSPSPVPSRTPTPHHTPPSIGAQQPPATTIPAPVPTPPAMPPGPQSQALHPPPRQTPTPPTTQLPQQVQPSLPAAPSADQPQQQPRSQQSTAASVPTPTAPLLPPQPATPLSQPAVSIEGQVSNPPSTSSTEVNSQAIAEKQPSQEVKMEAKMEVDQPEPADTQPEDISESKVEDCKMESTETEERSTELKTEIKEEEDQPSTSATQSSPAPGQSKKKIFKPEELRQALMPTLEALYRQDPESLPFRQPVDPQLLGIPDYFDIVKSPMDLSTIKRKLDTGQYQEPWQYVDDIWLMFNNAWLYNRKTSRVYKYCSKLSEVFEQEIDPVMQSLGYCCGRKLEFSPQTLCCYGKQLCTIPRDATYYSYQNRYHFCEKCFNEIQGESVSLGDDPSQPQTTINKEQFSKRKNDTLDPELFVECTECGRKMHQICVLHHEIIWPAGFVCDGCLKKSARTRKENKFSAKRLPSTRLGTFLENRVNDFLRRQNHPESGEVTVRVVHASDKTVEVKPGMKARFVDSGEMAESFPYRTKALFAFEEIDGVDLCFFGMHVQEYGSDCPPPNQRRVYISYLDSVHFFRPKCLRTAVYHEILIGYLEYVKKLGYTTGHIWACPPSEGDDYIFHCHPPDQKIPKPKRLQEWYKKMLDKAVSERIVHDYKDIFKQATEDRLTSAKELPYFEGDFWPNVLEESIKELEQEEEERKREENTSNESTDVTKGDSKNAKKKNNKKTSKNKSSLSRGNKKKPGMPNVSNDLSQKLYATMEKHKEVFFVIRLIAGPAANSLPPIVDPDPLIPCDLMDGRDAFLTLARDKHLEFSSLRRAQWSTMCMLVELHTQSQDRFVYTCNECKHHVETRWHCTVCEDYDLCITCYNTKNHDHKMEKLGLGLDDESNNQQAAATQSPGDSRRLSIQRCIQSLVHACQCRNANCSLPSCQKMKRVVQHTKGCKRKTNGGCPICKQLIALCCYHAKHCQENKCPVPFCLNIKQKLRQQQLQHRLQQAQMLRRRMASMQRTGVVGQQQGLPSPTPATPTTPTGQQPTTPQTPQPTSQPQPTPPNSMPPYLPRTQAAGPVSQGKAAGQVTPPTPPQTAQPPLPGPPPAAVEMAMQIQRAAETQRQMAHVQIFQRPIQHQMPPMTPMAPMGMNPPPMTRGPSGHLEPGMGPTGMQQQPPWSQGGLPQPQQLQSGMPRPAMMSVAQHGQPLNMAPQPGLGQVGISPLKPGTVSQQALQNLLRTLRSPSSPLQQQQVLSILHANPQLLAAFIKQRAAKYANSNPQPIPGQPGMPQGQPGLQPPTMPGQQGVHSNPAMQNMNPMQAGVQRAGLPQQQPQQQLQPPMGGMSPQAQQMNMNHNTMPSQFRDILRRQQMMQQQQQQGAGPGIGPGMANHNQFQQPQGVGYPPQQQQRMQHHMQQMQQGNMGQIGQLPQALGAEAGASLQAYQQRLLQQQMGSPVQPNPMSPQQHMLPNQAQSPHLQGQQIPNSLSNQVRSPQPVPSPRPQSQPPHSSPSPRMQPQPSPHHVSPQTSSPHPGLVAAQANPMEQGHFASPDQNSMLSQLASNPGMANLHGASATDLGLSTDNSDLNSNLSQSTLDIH

| SMILES | IC50 (histone acetylase p300) | IC50 (CWR22RV1 cells; [1]) | IC50 (CWR22RV1 cells; [2]) | IC50 (CWR22RV1 cells; [3]) |
| --- | --- | --- | --- | --- |
| CNC(=O)Nc1ccc2c(c1)CC[C@@]21OC(=O)N(CC(=O)N2[C@@H](C)CC[C@H]2c2ccc(F)c(Cl)c2)C1=O [Example 213, 1-((R)-3′-(2-((2S,5S)-2-(3-chloro-4-fluorophenyl)-5-methylpyrrolidin-1-yl)-2-oxoethyl)-2′,4′-dioxo-2,3-dihydrospiro[indene-1,5′-oxazolidine]-5-yl)-3-methylurea] | 13 nM | ≤ 500 nM | ≤ 500 nM |  |
| CNC(=O)Nc1ccc2c(c1)CC[C@@]21OC(=O)N(CC(=O)N2C(C3CC3)CC[C@H]2c2ccc(F)cc2)C1=O (stereo in doubt) [Example 380, 1-((R)-3′-(2-((2S,5S)-2-cyclopropyl-5-(4-fluorophenyl)pyrrolidin-1-yl)-2-oxoethyl)-2′,4′-dioxo-2,3-dihydrospiro[indene-1,5′-oxazolidine]-5-yl)-3-methylurea] | 5.1 nM |  | ≤ 500 nM | ≤ 500 nM |
| CNC(=O)Nc1ccc2c(c1)CC[C@@]21OC(=O)N(CC(=O)N2[C@@H](COC)CC[C@H]2c2ccc(F)cc2)C1=O [Example 362, 1-(3′-(2-((2S,5R)-2-(4-fluorophenyl)-5-(methoxymethyl)pyrrolidin-1-yl)-2-oxoethyl)-2′,4′-dioxo-2,3-dihydrospiro[indene-1,5′-oxazolidine]-5-yl)-3-methylurea] | 15 nM |  | ≤ 500 nM | ≤ 500 nM |
| C[C@H]1CC[C@@H](c2ccc(F)cc2)N1C(=O)CN1C(=O)O[C@@]2(CCc3cc(NC(=O)NC4CC4)ccc32)C1=O [Example 371, 1-((R)-3′-(2-((2S,5S)-2-(4-fluorophenyl)-5-methylpyrrolidin-1-yl)-2-oxoethyl)-2′,4′dioxo-2,3-dihydrospiro[indene-1,5-oxazolidine]-5-yl)-3-cyclopropylurea] | 3.1 nM |  |  | 500 to 2000 nM |
| CNC(=O)Nc1ccc2c(c1)CC[C@@]21OC(=O)N(CC(=O)N2CCC[C@H]2c2ccccc2)C1=O [Example 225, 1-((R)-2′,4′-dioxo-3′-(2-oxo-2-((S)-2-phenylpyrrolidin-1-yl)ethyl)-2,3-dihydrospiro[indene-1,5′-oxazolidine]-5-yl)-3-methylurea] | 67 nM |  |  | 500 to 2000 nM |
| CNC(=O)Nc1ccc2c(c1)CC[C@@]21OC(=O)N(CC(=O)N2[C@@H](C)CC[C@H]2c2ccc(F)cc2)C1=O [Example 14, 1-((R)-3′-(2-((2S,5S)-2-(4-fluorophenyl)-5-methylpyrrolidin-1-yl)-2-oxoethyl)-2′,4′-dioxo2,3-dihydrospiro[indene-1,5′-oxazolidine]-5-yl)-3-methylurea] | 5.7 nM |  | ≤ 500 nM | ≤ 500 nM |
| CNC(=O)Nc1ccc2c(c1)CC[C@@]21OC(=O)N(CC(=O)N2C(c3ccc(F)cc3C)CC[C@H]2C)C1=O (some centres unmarked) [Example 21] | 17 nM | ≤ 500 nM |  |  |
| CCC1CC[C@@H](C2CCC(F)(F)CC2)N1C(=O)CN1C(=O)O[C@@]2(CCc3cc(NC(=O)NC)ccc32)C1=O (stereo in doubt) [Example 212, 1-((R)-3′-(2-((2S,5R)-2-(4,4-difluorocyclohexyl)-5-ethyl-pyrrolidin-1-yl)-2-oxoethyl)-2′,4′-dioxo-2,3-dihydrospiro[indene-1,5′-oxazolidine]-5-yl)-3-methylurea] | 9.3 nM |  | ≤ 500 nM | ≤ 500 nM |
| CC[C@H]1CC[C@@H](c2ccc(F)cc2)N1C(=O)CN1C(=O)O[C@@]2(CCc3cc(NC(=O)NC)ccc32)C1=O [Example 43, 1-((R)-3′-(2-((2S,5S)-2-ethyl-5-(4-fluorophenyl)pyrrolidin-1-yl)-2-oxoethyl)-2′,4′-dioxo-2,3-dihydrospiro[indene-1,5′-oxazolidine]-5-yl)-3-methylurea] | 3.1 nM |  | ≤ 500 nM | ≤ 500 nM |
| CNC(=O)Nc1ccc2c(c1)CC[C@@]21OC(=O)N(CC(=O)N2C(c3ccc(F)cc3F)CC[C@@H]2C)C1=O (stereo partly drawn) [Example 370, 1-((R)-3′-(2-((5S)-2-(2,4-difluorophenyl)-5-methylpyrrolidin-1-yl)-2-oxoethyl)-2′,4′-dioxo-2,3-dihydrospiro[indene-1,5′-oxazolidine]-5-yl)-3-methylurea] | 103 nM |  |  | > 2000 nM |
| CC(=O)Nc1ccc2c(c1)CC[C@@]21OC(=O)N(CC(=O)N2[C@@H](C)CC[C@H]2c2ccc(F)cc2)C1=O [Example 114, N—((R)-3′-(2-((2S,5S)-2-(4-fluorophenyl)-5-methylpyrrolidin-1-yl)-2-oxoethyl)-2′,4′-dioxo-2,3-dihydrospiro[indene-1,5′-oxazolidine]-5-yl)acetamide] | 26 nM |  |  | 500 to 2000 nM |
| CNC(=O)Nc1ccc2c(c1)CC[C@@]21OC(=O)N(CC(=O)N2[C@@H](C)CC[C@H]2c2ccc(F)cc2F)C1=O [Example 217, 1-((R)-3′-(2-((2S,5S)-2-(2,4-difluorophenyl)-5-methylpyrrolidin-1-yl)-2-oxoethyl)-2′,4′-dioxo-2,3-dihydrospiro[indene-1,5′-oxazolidine]-5-yl)-3-methylurea] | 5.5 nM |  | ≤ 500 nM | ≤ 500 nM |
| COC(=O)Nc1ccc2c(c1)CC[C@@]21OC(=O)N(CC(=O)N2[C@@H](C)CC[C@H]2c2ccc(F)cc2)C1=O [Example 115, ((R)-3′-(2-((2S,5S)-2-(4-fluorophenyl)-5-methylpyrrolidin-1-yl)-2-oxoethyl)-2′,4′-dioxo-2,3-dihydrospiro[indene-1,5′-oxazolidine]-5-yl)carbamic acid methyl ester] | 64 nM |  |  | > 2000 nM |
| CNC(=O)Nc1ccc2c(c1)CC[C@@]21OC(=O)N(CC(=O)N2C(C)CCC2c2ccc(OC)cc2)C1=O (stereo partly drawn) [Example 350, 1-((1R)-3′-(2-(2-(4-methoxyphenyl)-5-methylpyrrolidin-1-yl)-2-oxoethyl)-2′,4′-dioxo-2,3-dihydrospiro[indene-1,5′-oxazolidine]-5-yl)-3-methylurea] | 33 nM |  |  | 500 to 2000 nM |
| CNC(=O)Nc1ccc2c(c1)CC[C@@]21OC(=O)N(CC(=O)N2C(C)CCC2C2CCCCC2)C1=O (stereo partly drawn) [Example 96, 1-((1R)-3′-(2-(2-cyclohexyl-5-methylpyrrolidin-1-yl)-2-oxoethyl)-2′,4′-dioxo-2,3-dihydrospiro[indene-1,5′-oxazolidine]-5-yl)-3-methylurea] | 7.5 nM |  |  | ≤ 500 nM |
| CNC(=O)Nc1ccc2c(c1)CC[C@@]21OC(=O)N(CC(=O)N2[C@@H](C)CC[C@H]2C2CCC(F)(F)CC2)C1=O [Example 209, 1-((R)-3′-(2-((2S,5S)-2-(4,4-difluorocyclohexyl)-5-methylpyrrolidin-1-yl)-2-oxoethyl)-2′,4′-dioxo-2,3-dihydrospiro[indene-1,5′-oxazolidine]-5-yl)-3-methylurea] | 11 nM |  | ≤ 500 nM | ≤ 500 nM |
| CNC(=O)Nc1ccc2c(c1)CC[C@@]21OC(=O)N(CC(=O)N2[C@H](C)CC[C@@H]2c2ccc(F)cc2)C1=O [Example 17, 1-((R)-3′-(2-((2R,5R)-2-(4-fluorophenyl)-5-methylpyrrolidin-1-yl)-2-oxoethyl)-2′,4′-dioxo-2,3-dihydrospiro[indene-1,5′-oxazolidine]-5-yl)-3-methylurea] | 3600 nM |  |  | > 2000 nM |
| CNC(=O)Nc1ccc2c(c1)CC[C@@]21OC(=O)N(CC(=O)N2CCCC2c2ccccc2OC)C1=O (stereo partly drawn) [Example 319, 1-((1R)-3′-(2-(2-(2-methoxyphenyl)pyrrolidin-1-yl)-2-oxoethyl)-2′,4′-dioxo-2,3-dihydrospiro[indene-1,5′-oxazolidine]-5-yl)-3-methylurea] | 84 nM |  |  | > 2000 nM |
| CNC(=O)Nc1ccc2c(c1)CC[C@@]21OC(=O)N(CC(=O)N2[C@@H](C(C)C)CC[C@H]2c2ccc(F)cc2)C1=O [Compound 48] | 4.5 nM |  |  |  |
| CNC(=O)Nc1ccc2c(c1)C1(CC1)CC21OC(=O)N(CC(=O)N(Cc2ccc(F)cc2)[C@@H](C)C(F)(F)F)C1=O (stereo partly drawn) [Example 98, 2-(5-(3-methylureido)-2′,4′-dioxo-2,3-dihydrospiro[cyclopropane-indene-1,5′-oxazole]-3′-yl)-N-(4-fluorobenzyl)-N—((S)-1,1,1-trifluoropropan-2-yl)acetamide] | 26 nM |  |  | 500 to 2000 nM |
